According to US11358947B2, “Substituted 2-acylamino-cycloalkylthiophene-3-carboxylic acid arylamides as inhibitors of calcium-activated chloride channel TMEM16A” (THE REGENTS OF THE UNIVERSITY OF CALIFORNIA, priority 2017, dated 2022):
pIC50: −log10 of the molar value. “And” between values parts separate entries of the source, which are not always exact repeats. Identical values can stand only once.

Legend:
[1] = molecular target: T1, TMEM16A (Homo sapiens, UniProt Q5XXA6); assay: TMEM16A functional fluorescence plate reader (FPR) assay, iodide influx in FRT cells with YFP; format: cell-based; conditions: TMEM16A-expressing FRT cells, compound 10 min before iodide/ATP
T1 sequence (Q5XXA6 1-986): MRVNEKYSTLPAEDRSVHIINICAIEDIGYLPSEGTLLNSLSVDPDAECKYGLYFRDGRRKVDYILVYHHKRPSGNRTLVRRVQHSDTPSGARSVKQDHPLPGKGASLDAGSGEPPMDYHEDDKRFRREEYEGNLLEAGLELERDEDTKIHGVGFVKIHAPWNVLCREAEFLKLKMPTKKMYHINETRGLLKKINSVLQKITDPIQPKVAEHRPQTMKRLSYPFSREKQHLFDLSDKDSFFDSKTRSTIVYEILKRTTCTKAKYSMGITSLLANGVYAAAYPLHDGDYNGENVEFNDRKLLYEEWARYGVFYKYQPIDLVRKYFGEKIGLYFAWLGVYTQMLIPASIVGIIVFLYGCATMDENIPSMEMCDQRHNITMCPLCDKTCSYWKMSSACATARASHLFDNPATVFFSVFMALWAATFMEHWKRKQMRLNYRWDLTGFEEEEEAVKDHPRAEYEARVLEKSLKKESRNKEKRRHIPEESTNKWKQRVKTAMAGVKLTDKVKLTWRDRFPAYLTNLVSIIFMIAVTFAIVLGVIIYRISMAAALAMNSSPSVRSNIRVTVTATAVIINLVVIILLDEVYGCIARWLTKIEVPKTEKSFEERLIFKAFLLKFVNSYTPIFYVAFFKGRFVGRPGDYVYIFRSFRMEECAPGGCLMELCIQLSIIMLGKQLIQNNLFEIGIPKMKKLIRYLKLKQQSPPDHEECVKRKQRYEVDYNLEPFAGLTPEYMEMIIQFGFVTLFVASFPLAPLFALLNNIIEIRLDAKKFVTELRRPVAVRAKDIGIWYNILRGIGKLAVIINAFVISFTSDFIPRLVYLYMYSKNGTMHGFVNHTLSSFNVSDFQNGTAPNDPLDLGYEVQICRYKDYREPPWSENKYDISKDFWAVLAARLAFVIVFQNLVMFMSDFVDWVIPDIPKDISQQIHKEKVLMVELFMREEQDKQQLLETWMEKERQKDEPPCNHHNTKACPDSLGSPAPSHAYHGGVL
Method: A high-throughput screening assay was previously developed to identify small molecule inhibitors of TMEM16A. […] The assay involved addition of test compounds to the cells for 10 min in a physiological chloride-containing solution, followed by addition of an iodide solution containing ATP. TMEM16A-facilitated iodide influx was determined from the initial time course of decreasing YFP fluorescence.
2-Acylamino-cycloalkylthiophene-3-carboxylic acid arylamides 6aa-6bw were initially evaluated for inhibition of TMEM16A anion channel function using a cell-based functional plate reader assay as reported.
Yields (%) are of the isolated or purified products. IC50 (μM) for inhibition of TMEM16A anion conductance using a fluorescence plate reader (FPR) assay.
Cell lines and culture. Fischer Rat Thyroid (FRT) cells stably co-expressing TMEM16A, TMEM16B and human wild-type CFTR and the halide-sensitive yellow fluorescent protein (YFP)-H148Q were cultured as described. […] For plate reader assays, cells were plated in black 96-well microplates (Corning-Costar Corp., New York, N.Y.) at a density of 20,000 cells per well and assayed 24-48 hours after plating.
TMEM16A functional assay. TMEM16A functional plate-reader assay was done as previously described. […] Test compounds (0.5 μl in DMSO) were added to each well at specified concentration. […] The initial rate of I− influx following each of the solution additions was computed from fluorescence data by nonlinear regression. TMEM16B activity was assayed similarly as described using FRT cells co-expressing YFP and TMEM16B.

[2] = molecular target: T1, TMEM16A; assay: Short-circuit current assay in TMEM16A-expressing FRT cells; format: cell-based
Text: Measurements were done in FRT cells expressing TMEM16A.
(§1) Concentration-dependent inhibition of TMEM16A measured by short-circuit current assay; TMEM16B and non-TMEM16 anion conductance measured using a fluorescence plate reader assay using FRT and HT-29 cells respectively; cell viability measured in FRT null cells.
Short-circuit current measurement. Short-circuit current measurements were done as described. (See Piechowicz, K. A. et al., J Enzyme Inhib Med Chem 2016, 1-7.) Briefly, Snapwell inserts (Corning Costar, Corning, N.Y.) containing TMEM16A-expressing FRT cells were mounted in Ussing chambers (Physiological instruments, San Diego, Calif.). The hemichambers were filled with 5 ml of HCO3^− buffered solution (basolateral) and half-Cl^− solution (apical), and the basolateral membrane was permeabilized with 250 μg/ml amphotericin B. Solutions were bubbled with 95% O2/5% CO2 and maintained at 37° C., and short-circuit current was measured on a DVC-1000 voltage clamp (World Precision Instruments Inc., Sarasota, Fla.) using Ag/AgCl electrodes and 3 M KCl agar bridges.

[3] = tested on: FRT null cells; assay: Cytotoxicity by Alamar Blue assay in FRT cells; format: cell-based, rat; conditions: 8 h
Method: as §1
We further assayed the compound potency on endogenous non-TMEM16A. Ca^2+-activated Cl^− channel in HT-29 cells.
Cytotoxicity. FRT cells were cultured overnight in black 96-well Costar microplates and incubated with 5 μM test compounds for 8 h. Cytotoxicity was measured by Alamar Blue assay (Invitrogen, Carlsbad, Calif.) as per the manufacturer's instructions.

[4] = tested on: SW-480 cells; assay: SW-480 cell proliferation, AlamarBlue after 72 h; format: cell-based; conditions: Homo sapiens, SW480; AlamarBlue after 72 h of drug treatment; read-out: IC50 inhibition of SW-480 cell proliferation
Method: Compounds according to the present disclosure (structures shown in FIG. 5B) were tested for their inhibitory effect on proliferation of SW-480 cell line.
SW-480 cells were cultured on plastic in Leibovitz L15 medium supplemented with 10% fetal bovine serum, 2 mM L-glutamine, 100 units/mL penicillin, and 100 μg/mL streptomycin. The cells were incubated at 37° C. without CO2.
SW-480 cells were plated into black 96-well microplates (Corning-Costar Corp., New York, N.Y.) at 10% seeding. The cells were treated with test compounds dissolved in DMSO in serial dilution while maintaining the final concentration of DMSO at 0.5%. Plated cells were then incubated for 72 h at 37° C. Cell proliferation was quantified using the AlamarBlue assay (Invitrogen, Carlsbad, Calif.) as per the manufacturer's instructions. Data was normalized against untreated control cells that were lysed for 10 minutes using Triton-X100 (0.1% in PBS).

Cc1ccccc1NC(=O)c1c(NC(=O)C(F)(F)Br)sc2c1CCCCC2 [Compound 6bm, 2-(2-Bromo-2,2-difluoro-acetylamino)-5,6,7,8-tetrahydro-4H-cyclohepta[b]thiophene-3-carboxylic acid o-tolylamide]
pIC50 [1]: 6.74 to 7.10 and 7.08 | pIC50 [2]: 7.52 | Cellular survival % at 5 μM [3]: 97% | pIC50 [4]: 5.15

Cc1ccccc1NC(=O)c1c(NC(=O)C(F)(F)F)sc2c1CCCCC2 [Compound 6aa, 2-(2,2,2-Trifluoro-acetylamino)-5,6,7,8-tetrahydro-4H-cyclohepta[b]thiophene-3-carboxylic acid o-tolylamide]
pIC50 [1]: 6.38 | pIC50 [2]: 6.59 | Cellular survival % at 5 μM [3]: 99% | pIC50 [4]: 6.02
